We go through 28 compounds from article PMC11247627, “Evaluation of Antibacterial Functionalized Dihydropyrimidine Photoaffinity Probes Toward Mechanism of Action Studies” (ACS Medicinal Chemistry Letters, 2024).

Common to all, as to format: cell-based
The subject of assay [1] is Staphylococcus aureus ATCC 12600. The experiment in a line: Antibacterial broth microdilution assay (MIC), methicillin-sensitive S. aureus ATCC 12600. The following applies: for MIC: Staphylococcus aureus, read-out: MIC ATCC 12600. How it is done: (§1) These 24 DHP analogues were then screened for inhibition of Staphylococcus aureus growth using microdilution assays. Growth inhibition was examined in methicillin-sensitive S. aureus (ATCC 12600) and two strains of MRSA (ATCC 33591 and ATCC 43300). Antibiotic controls were included in the screen, including carbenicillin, erythromycin, gentamycin, trimethoprim, and vancomycin, and minimum inhibitory concentrations (MICs) were determined for each compound, which were defined as the concentration required to inhibit >95% of bacterial growth (Table 1).
(§2) Antibacterial Microdilution Assay (MIC Determination)
(§3) 1240 The MIC determination assays were performed in a BSL-2 laboratory with appropriate security and biosafety measures. The MICs were determined using a broth microdilution assay closely following the guidelines of the Clinical and Laboratories Standards Institute (CLSI). MICs were determined in duplicate for two biological replicates using 2-fold serial dilutions of test compounds or commercial antibiotics in cation-adjusted Mueller-Hinton broth. The central 60 wells of 96-well plates were 1245 prepared with the compound of interest at the indicated concentration, where 2 µL of the compound in DMSO were added prior to the addition of the culture. Overnight cultures of the different Staphylococcus aureus strains were diluted to provide an initial inoculum of approximately 5 X 10 5 CFU/mL that was delivered to each well in 198 µL of culture (final DMSO concentration of ~1%). Initial inoculum concentrations were verified by plating to count CFU/mL. Each plate was equipped with 1250 experimental controls for full growth (6 wells) and full growth inhibition (6 wells), and all control wells were in the presence of 1% DMSO. The outer 36 wells were filled with 200 µL of culture each to prevent growth effects on the interior 60 wells. The plates were incubated at 37 °C for 18 hours, at which time they were removed from the incubator and were allowed to equilibrate to room temperature for 30 minutes. Absorbance of each well at 600 nm was then read using a microplate reader to 1255 determine the MIC, and visual confirmation of growth inhibition was also performed. If variation was seen in the experimental values, the highest value of two independent trials was listed.
For orientation: Broth dilution looks for growth in wells or tubes with falling amounts of substance.

Assay [2] relates to Staphylococcus aureus ATCC 33591 (MRSA). Nature of the assay: Antibacterial broth microdilution assay (MIC), MRSA ATCC 33591. As to conditions: 18 h; for MIC: Staphylococcus aureus, read-out: MIC ATCC 33591. On the procedure: as §1, §2, §3
For assay [3], the system named is Staphylococcus aureus ATCC 43300 (MRSA). The experiment in a line: Antibacterial broth microdilution assay (MIC), MRSA ATCC 43300. As to conditions: 18 h; for MIC: Staphylococcus aureus, read-out: MIC ATCC 43300. On the procedure: as §1, §2, §3
For assay [4], the system named is Staphylococcus aureus. The experiment in a line: S. aureus growth inhibition (all three strains or strain not specified). As to conditions: for antibacterial potency of alkynyl esters compared to their ethyl variants: MIC comparison, Table 3; for MIC: Staphylococcus aureus, read-out: concentration inhibiting S. aureus growth (MIC). On the procedure:
as §1, §2, §3

Where [5] appears, read: ATCC12600, amount inhibiting >95% of growth (A600), 18 h, suffix 'I' = partial growth inhibition at the value, >95% at higher concentrations.
The mark [6] stands for this setting: amount inhibiting >95% of growth (A600), suffix 'I' = partial growth inhibition at the value, >95% at higher concentrations.
Setting [7] is: all three S. aureus strains or strain not specified.

In brackets after ≈: the same amount, converted by molar mass. Where two headings read alike, the source gives them in different places. Some results are limits rather than exact numbers.

Consider `CCOC(=O)C1=C(c2ccccc2)NC(N)=NC1c1ccccc1[N+](=O)[O-]` (stereo not drawn) [6a], for which the MIC in assay [1] (setting [5]), in assay [2] (setting [6]) and in assay [3] (setting [6]) was greater than 64 µg/mL throughout.
In the case of `CCOC(=O)C1=C(c2ccccc2)NC(N)=NC1c1cccc([N+](=O)[O-])c1` (stereo not drawn) [6b], the MIC in assay [1] (setting [5]) turned out to be 64 µg/mL (≈ 175 µM).
Take `CCOC(=O)C1=C(c2ccccc2)NC(N)=NC1c1ccc([N+](=O)[O-])cc1` (stereo not drawn) [6c]: the MIC in assay [1] (setting [5]), in assay [2] (setting [6]) and in assay [3] (setting [6]) was 64 µg/mL (≈ 175 µM) throughout.
As to `CCOC(=O)C1=C(c2ccccc2)NC(N)=NC1c1cccc(C(F)(F)F)c1` (stereo not drawn) [6d], the MIC in assay [1] (setting [5]), in assay [2] (setting [6]) and in assay [3] (setting [6]) was 32 µg/mL (≈ 82.2 µM) throughout.
In the case of `CCOC(=O)C1=C(c2ccccc2)NC(N)=NC1c1ccc(C(F)(F)F)cc1` (stereo not drawn) [6e], the MIC in assay [1] (setting [5]), in assay [2] (setting [6]) and in assay [3] (setting [6]) was 16 µg/mL (≈ 41.1 µM) each time.
With `CCOC(=O)C1=C(c2ccccc2)NC(N)=NC1c1ccccc1F` (stereo not drawn) [6f], the MIC in assay [1] (setting [5]), in assay [2] (setting [6]) and in assay [3] (setting [6]) was greater than 64 µg/mL in each case.
On to `CCOC(=O)C1=C(c2ccccc2)NC(N)=NC1c1ccc(C)cc1` (stereo not drawn) [6m], for which the MIC in assay [1] (setting [5]), in assay [2] (setting [6]) and in assay [3] (setting [6]) was greater than 64 µg/mL each time.
Take `CCOC(=O)C1=C(c2ccccc2)NC(N)=NC1c1c(C)cccc1C` (stereo not drawn) [6n]: the MIC in assay [2] (setting [6]) was found to be 64 µg/mL (≈ 183 µM).
In the case of `CCOC(=O)C1=C(c2ccccc2)NC(N)=NC1c1ccc(C)c(C)c1` (stereo not drawn) [6p], in assay [3] (setting [6]), the MIC is 32 µg/mL (≈ 91.6 µM).
For `CCOC(=O)C1=C(c2ccccc2)NC(N)=NC1c1cc(C)cc(C)c1` (stereo not drawn) [6q], the MIC in assay [1] (setting [5]), in assay [2] (setting [6]) and in assay [3] (setting [6]) was greater than 64 µg/mL in each case.
As to `CCOC(=O)C1=C(c2ccccc2)NC(N)=NC1c1cccc(OC)c1` (stereo not drawn) [6t], the MIC in assay [1] (setting [5]), in assay [2] (setting [6]) and in assay [3] (setting [6]) was greater than 64 µg/mL throughout.
For the compound `CCOC(=O)C1=C(c2ccccc2)NC(N)=NC1c1cc(OC)cc(OC)c1` (stereo not drawn) [6v], the MIC in assay [1] (setting [5]), in assay [2] (setting [6]) and in assay [3] (setting [6]) was greater than 64 µg/mL throughout.
With `CCOC(=O)C1=C(CC)NC(N)=NC1c1ccc(-c2ccccc2)cc1` (stereo not drawn) [7d], the MIC in assay [2] (setting [6]) was found to be 8 µg/mL (≈ 22.9 µM).
Consider `CCOC(=O)C1=C(c2cccc(C)c2)NC(N)=NC1c1ccc(CC(C)C)cc1` (stereo not drawn) [7j], for which the MIC in assay [1] (setting [5]), in assay [2] (setting [6]) and in assay [3] (setting [6]) was 4 µg/mL (≈ 10.2 µM) each time.
Regarding `CCOC(=O)C1=C(c2ccccc2)NC(N)=NC1c1ccc(C2(C(F)(F)F)N=N2)cc1` (stereo not drawn) [26a], the MIC in assay [1] (setting [5]) and in assay [3] (setting [6]) was 4 µg/mL (≈ 9.32 µM) in each case.
For `CCOC(=O)C1=C(c2ccc(C3(C(F)(F)F)N=N3)cc2)NC(N)=NC1c1cc(Cl)cc(Cl)c1` (stereo not drawn) [26b], the MIC in assay [1] (setting [5]) and in assay [3] (setting [6]) was 4 µg/mL (≈ 8.03 µM) throughout.
Regarding `CCOC(=O)C1=C(c2ccc(C3(C(F)(F)F)N=N3)cc2)NC(N)=NC1c1ccc(CC(C)C)cc1` (stereo not drawn) [26c], the MIC in assay [1] (setting [5]) and in assay [3] (setting [6]) was 2 µg/mL (≈ 4.12 µM) in each case.
For the compound `C#CCCOC(=O)C1=C(c2ccccc2)NC(N)=NC1c1cc(Cl)cc(Cl)c1` (stereo not drawn) [26d], the MIC in assay [1] (setting [5]) and in assay [3] (setting [6]) was 16 µg/mL (≈ 38.6 µM) throughout. For the same compound, the “antibacterial potency of alkynyl esters compared to their ethyl variants” value in assay [4] was 2-fold decreased potency.
As to `C#CCCOC(=O)C1=C(c2ccccc2)NC(N)=NC1c1ccc(C2(C(F)(F)F)N=N2)cc1` (stereo not drawn) [26e], the MIC in assay [1] (setting [5]) and in assay [3] (setting [6]) was 8 µg/mL (≈ 17.6 µM) throughout. Moreover, in assay [4], the “antibacterial potency of alkynyl esters compared to their ethyl variants” value is 2-fold decreased potency.
Regarding `C#CCCCOC(=O)C1=C(c2ccccc2)NC(N)=NC1c1cc(Cl)cc(Cl)c1` (stereo not drawn) [26f], the MIC in assay [1] (setting [5]) and in assay [3] (setting [6]) was 4 µg/mL (≈ 9.34 µM) in each case. Further, in assay [4], the “antibacterial potency of alkynyl esters compared to their ethyl variants” value is reported as 2-fold increased potency.
On to `C#CCCCOC(=O)C1=C(c2ccccc2)NC(N)=NC1c1ccc(C2(C(F)(F)F)N=N2)cc1` (stereo not drawn) [26g], for which the MIC in assay [1] (setting [5]) and in assay [3] (setting [6]) was 4 µg/mL (≈ 8.56 µM) in each case. Also, the “antibacterial potency of alkynyl esters compared to their ethyl variants” value in assay [4] is “equal potency”.
As to `C#CCCCOC(=O)C1=C(c2ccc(C3(C(F)(F)F)N=N3)cc2)NC(N)=NC1c1ccc(CC(C)C)cc1` (stereo not drawn) [26h], the MIC in assay [1] (setting [5]), in assay [3] (setting [6]) and in assay [4] (setting [7]) was 2 µg/mL (≈ 3.82 µM) each time. Also, the “antibacterial potency of alkynyl esters compared to their ethyl variants” value in assay [4] is listed as “equal potency”.
Take `CC1(C)S[C@@H]2[C@H](NC(=O)C(C(=O)O)c3ccccc3)C(=O)N2[C@H]1C(=O)O` (stereo partly drawn) [carbenicillin, reference compound]: the MIC was 2 µg/mL (≈ 5.29 µM) in assay [1] (setting [5]), 128 µg/mL (≈ 338 µM) in assay [2] (setting [6]) and 32 µg/mL (≈ 84.6 µM) in assay [3] (setting [6]).
With `CCOC(=O)CC(=O)c1ccc(C2(C(F)(F)F)N=N2)cc1` [compound 11], the MIC in assay [1] (setting [5]), in assay [3] (setting [6]) and in assay [4] (setting [7]) was greater than 64 µg/mL throughout.
`O=Cc1ccc(C2(C(F)(F)F)N=N2)cc1` [compound 25]: the MIC in assay [1] (setting [5]), in assay [3] (setting [6]) and in assay [4] (setting [7]) was greater than 64 µg/mL in each case.
As to `CC[C@H]1OC(=O)[C@H](C)[C@@H](O[C@H]2C[C@@](C)(OC)[C@@H](O)[C@H](C)O2)[C@H](C)[C@@H](O[C@@H]2O[C@H](C)C[C@H](N(C)C)[C@H]2O)[C@](C)(O)C[C@@H](C)C(=O)[C@H](C)[C@@H](O)[C@]1(C)O` [erythromycin, reference compound], the MIC was 0.5 µg/mL (≈ 0.681 µM) in assay [1] (setting [5]), greater than 512 µg/mL in assay [2] (setting [6]) and greater than 512 µg/mL in assay [3] (setting [6]).
For `CN[C@H](CC(C)C)C(=O)N[C@H]1C(=O)N[C@@H](CC(N)=O)C(=O)N[C@H]2C(=O)N[C@H]3C(=O)N[C@H](C(=O)N[C@H](C(=O)O)c4cc(O)cc(O)c4-c4cc3ccc4O)[C@H](O)c3ccc(c(Cl)c3)Oc3cc2cc(c3O[C@@H]2O[C@H](CO)[C@@H](O)[C@H](O)[C@H]2O[C@H]2C[C@](C)(N)[C@H](O)[C@H](C)O2)Oc2ccc(cc2Cl)[C@H]1O` [vancomycin, reference compound], the MIC was 2 µg/mL (≈ 1.38 µM) in assay [1] (ATCC12600, 18 h); 2 µg/mL (≈ 1.38 µM) in assay [2]; 2 µg/mL (≈ 1.38 µM) in assay [3]; 2 µg/mL (≈ 1.38 µM) in assay [4].
As for gentamycin [reference compound], the “MIC ATCC 12600” value in assay [1] (amount inhibiting >95% of growth (A600), 18 h, suffix 'I' = partial growth inhibition at the value, >95% at higher concentrations) stood at 4 µg/mL. Further, the “MIC ATCC 33591” value in assay [2] (setting [6]) worked out at 4 µg/mL. Moreover, the “MIC ATCC 43300” value in assay [3] (setting [6]) came out at 128 µg/mL.
